Molecules are shown by their SMILES. Values after ≈ are worked out from the molar mass of the structure shown.

The MIC is the lowest concentration that inhibits growth of the organism. The term IC50 denotes the point on the concentration scale where inhibition reaches its midpoint.

In series [1] the test system is MBL-producing P. aeruginosa clinical isolates. In words: MIC by broth microdilution (CLSI). Format: cell-based, Pseudomonas aeruginosa. To be noted: for MIC: Pseudomonas aeruginosa. How it is done: The DMSO stock solutions of the test compounds were serially diluted to the desired concentrations in CAMHB. Then, 10 μL of the bacterial suspension (5 × 10^5 colony forming units (CFU)/mL) was combined with 200 μL of DMSO stock solutions of the test compounds in 96-well microtiter plates (1% DMSO, final). After the incubation of the plate at 37 °C for 24 h, bacterial growth was visibly evaluated by monitoring the turbidity of the resulting suspension, and the MICs were determined as the lowest concentrations of the test compounds that inhibited the visible growth of the bacteria.
A general note: Broth dilution looks for growth in wells or tubes with falling amounts of substance.

The test system is the same in series [2]. Description: Broth microdilution checkerboard synergy assay (MIC of ATM in combination). Format: cell-based, Pseudomonas aeruginosa. To be noted: for MIC of ATM, alone or in combination: Table 4; for MIC Value of ATM, alone or in combination with ARMA: Table 2.
Series [3] concerns MBL-producing P. aeruginosa static biofilms. In words: Anti-biofilm activity, crystal violet staining. Format: cell-based, Pseudomonas aeruginosa. Conditions: for Biofilm biomass (OD600): 27 32 mg/L. The text has this:
inhibitor 27 against MBL-producing P. aeruginosa clinical isolates.
1 Biofilm biomass was quantified by crystal violet staining at OD600.2 %-inhibition of biofilm

For series [4], the system named is efflux pump of PA-038blaNDM. In words: Inhibition of efflux pumps: EtBr accumulation/efflux. Format: cell-based, Pseudomonas aeruginosa. To be noted: 8 mg/L of compound. As for the experimental part:
The accumulation of EtBr inside the NDM-producing (PA-038blaNDM) P. aeruginosa clinical isolates was monitored as previously described. Briefly, the P. aeruginosa strain was grown in 5 mL of LB medium until it reached the mid-log phase, and the bacteria were centrifuged at 3500 rpm for 15 min. The resulting pellet was washed twice with an equal volume of PBS. The concentration of the bacterial suspension was adjusted (OD600 = 0.3) and added to each well of a flat-bottomed 96-well black plate ([…]). After the addition of glucose (4 µL) to the cellular suspension at a final concentration of 0.4% (w/v), 4 µL of the title compound or positive control CCCP was added to the plate. Finally, EtBr (10 µL) was also added to each well at a final concentration of 1 µg/mL, and the plate was incubated at 37 °C for 60 min, during which time fluorescence emission from EtBr was recorded (λex 480 nm/λem 630 nm) with a 2-min interval, using a Cytation 5 imaging multi-mode reader (BioTek Instruments, Inc., Winooski, VT, USA).

For series [5], the target named is T1, AmpC (Escherichia coli, UniProt P00811).
T1 construct: made in house
T1 sequence (P00811 20-377): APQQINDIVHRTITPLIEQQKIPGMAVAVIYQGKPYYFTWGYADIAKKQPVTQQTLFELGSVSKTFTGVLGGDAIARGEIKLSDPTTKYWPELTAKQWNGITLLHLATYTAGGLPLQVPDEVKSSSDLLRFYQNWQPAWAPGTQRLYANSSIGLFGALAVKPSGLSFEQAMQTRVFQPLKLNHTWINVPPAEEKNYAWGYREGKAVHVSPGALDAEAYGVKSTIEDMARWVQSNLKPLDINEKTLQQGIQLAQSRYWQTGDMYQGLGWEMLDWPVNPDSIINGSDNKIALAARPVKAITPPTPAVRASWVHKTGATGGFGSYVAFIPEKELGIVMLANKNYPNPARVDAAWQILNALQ
Description: β-lactamase inhibition, nitrocefin hydrolysis. The class given is biochemical. An excerpt: (§1) Recombinant AmpC from Escherichia coli was produced according to a previously reported protocol. KPC-2 and NDM-1 […] were purchased from LifeSpan Biosciences, Inc. (Lynnwood, WA, USA) (LS-G26598) and RayBiotech, Inc. (Peachtree Corners, GA, USA) (230-00554), respectively. Genes encoding OXA-48 (residues 23–265) and VIM-2 (residues 27–266) were custom-synthesized (Bioneer Inc., Seoul, Republic of Korea) and expressed as previously described. The β-lactamase inhibitory activity of the title compounds was then determined according to the previously reported methods. Briefly, equal volumes (100 μL) of the title compounds (70–0.1 μM in PBS) and diluted enzyme stock were mixed (final concentration 2% of DMSO in 200 μL) in 96-well plates, which were then incubated at 37 °C for 20 min. The incubated mixture was added to each well containing substrates (nitrocefin for AmpC, KPC-2, OXA-48, and VIM-2; and imipenem for NDM-1) of final concentrations of 70 μM for nitrocefin and 100 μM for imipenem. Substrate hydrolysis was monitored at 486 nm (nitrocefin) or 300 nm (imipenem) for 15 min, using a Cytation 5 imaging multimode reader (BioTek Instruments Inc., Winooski, VT, USA). At the plateau level of hydrolysis, the corresponding rates of hydrolysis were compared to those obtained without inhibitors (100%) to determine the percentage of enzyme inhibition at each concentration of the title compounds. The IC50 values of the compounds were derived from sigmoidal dose–response curves, using GraphPad Prism 5 (GraphPad Software, Boston, MA, USA).

Series [6] addresses T2, KPC-2 (Klebsiella pneumoniae, UniProt Q9F663).
T2 construct: purchased LifeSpan Biosciences, Inc. LS-G26598
Description: β-lactamase inhibition, nitrocefin hydrolysis. Conditions: nitrocefin substrate; read-out: β-Lactamases, IC50 KPC-2. The class given is biochemical.
Text: as §1

Series [7] addresses T3, OXA-48 (Klebsiella pneumoniae, UniProt Q6XEC0).
T3 construct: Genes encoding OXA-48 (residues 23–265) and VIM-2 (residues 27–266) were custom-synthesized; made in house
Description: β-lactamase inhibition, nitrocefin hydrolysis. Format: biochemical. To be noted: nitrocefin substrate; read-out: β-Lactamases, IC50 OXA-48.
Text: as §1

For series [8], the target named is T4, VIM-2 (Escherichia coli, UniProt Q5U7L7).
T4 construct: Genes encoding OXA-48 (residues 23–265) and VIM-2 (residues 27–266) were custom-synthesized; made in house
In words: β-lactamase inhibition, nitrocefin hydrolysis. To be noted: nitrocefin substrate; read-out: β-Lactamases, IC50 VIM-2. Format: biochemical.
Text: as §1

For series [9], the target named is T5, NDM-1 (Klebsiella pneumoniae, UniProt C7C422).
T5 construct: purchased RayBiotech, Inc. 230-00554
T5 sequence (C7C422 29-270, looked up, species assumed): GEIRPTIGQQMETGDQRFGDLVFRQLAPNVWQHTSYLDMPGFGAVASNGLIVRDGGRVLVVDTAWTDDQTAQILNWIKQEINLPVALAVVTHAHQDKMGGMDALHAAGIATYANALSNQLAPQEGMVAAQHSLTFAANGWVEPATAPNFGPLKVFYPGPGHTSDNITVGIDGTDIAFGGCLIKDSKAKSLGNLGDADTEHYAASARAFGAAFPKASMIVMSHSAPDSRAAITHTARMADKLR
Description: β-lactamase inhibition, imipenem hydrolysis. The class given is biochemical. To be noted: imipenem substrate; read-out: β-Lactamases, IC50 NDM-1.
Text: as §1

The test system of series [10] is ESBLs. Also on record: method as in PMID 32843653. Conditions: cited from earlier work.
The test system of series [11] is human liver (HepG2) cell line. Description: HepG2 cell viability. Format: cell-based. To be noted: up to 64 mg/L, 24 h exposure. How it is done:
Concentration of 27 (mg/L)
Figure S1. Cell viability of human hepatoma HepG2 cells presented as percentage of
control after 24 h exposure to different concentrations of 27. The data represent the
average values of three experiments (± SD).

T2 sequence (Q9F663 25-293, looked up): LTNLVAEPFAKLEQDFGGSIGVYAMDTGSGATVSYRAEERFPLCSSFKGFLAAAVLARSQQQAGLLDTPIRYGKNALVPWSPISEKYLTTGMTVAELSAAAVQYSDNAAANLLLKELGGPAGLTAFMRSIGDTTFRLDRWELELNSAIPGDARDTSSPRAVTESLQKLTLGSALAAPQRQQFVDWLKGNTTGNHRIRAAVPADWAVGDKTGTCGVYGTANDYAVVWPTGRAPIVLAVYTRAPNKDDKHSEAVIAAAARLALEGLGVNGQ
T3 sequence (Q6XEC0 23-265 limits assumed): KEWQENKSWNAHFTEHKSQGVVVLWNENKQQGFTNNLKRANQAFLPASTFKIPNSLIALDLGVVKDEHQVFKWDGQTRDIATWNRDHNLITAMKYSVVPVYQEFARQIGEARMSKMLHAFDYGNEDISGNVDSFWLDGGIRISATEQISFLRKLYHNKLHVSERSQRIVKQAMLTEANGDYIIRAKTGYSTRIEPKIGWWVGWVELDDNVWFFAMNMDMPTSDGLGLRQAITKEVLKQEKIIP

On to `C[C@H]1[C@H](NC(=O)/C(=N\OC(C)(C)C(=O)O)c2csc(N)n2)C(=O)N1S(=O)(=O)O` [ATM, aztreonam], for which the “ATM MICs relative to the CLSI antibiotic susceptibility breakpoint (1 mg/L)” value in [1] (21 MBL-producing P. aeruginosa strains) was 8–64 times higher. The MIC in series [1] (PA-001, blaNDM) came to 32 µg/mL (≈ 73.5 µM); in series [1] (PA-002, blaIMP) it was 64 µg/mL (≈ 147 µM); in series [1] (PA-007, blaNDM), 16 µg/mL (≈ 36.7 µM); in series [1] (PA-008, blaNDM), 16 µg/mL (≈ 36.7 µM); in series [1] (PA-011, blaNDM) it was 16 µg/mL (≈ 36.7 µM); in series [1] (PA-012, blaNDM) it was 16 µg/mL (≈ 36.7 µM). The MIC in series [1] (PA-016, blaIMP) worked out at 64 µg/mL (≈ 147 µM); in series [1] (PA-017, blaNDM), 16 µg/mL (≈ 36.7 µM); in [1] (PA-019, blaNDM), 16 µg/mL (≈ 36.7 µM); in series [1] (PA-020, blaNDM), 16 µg/mL (≈ 36.7 µM); in series [1] (PA-023, blaNDM) it was 16 µg/mL (≈ 36.7 µM); in [1] (PA-025, blaNDM) it was 16 µg/mL (≈ 36.7 µM). Also, the MIC was found to be 32 µg/mL (≈ 73.5 µM) in series [1] (PA-027, blaIMP); 8 µg/mL (≈ 18.4 µM) in [1] (PA-028, blaNDM); 64 µg/mL (≈ 147 µM) in series [1] (PA-029, blaIMP); 64 µg/mL (≈ 147 µM) in series [1] (PA-030, blaIMP); 16 µg/mL (≈ 36.7 µM) in series [1] (PA-034, blaNDM); 16 µg/mL (≈ 36.7 µM) in series [1] (PA-036, blaNDM). Also, the MIC in series [1] (PA-038, blaNDM) turned out to be 16 µg/mL (≈ 36.7 µM); in series [1] (PA-039, blaNDM), 16 µg/mL (≈ 36.7 µM); in series [1] (PA-044, blaNDM), 16 µg/mL (≈ 36.7 µM). Further, the “MIC of ATM, alone or in combination” value in [2] (PA-001, blaNDM) stood at 32 mg/L; in [2] (PA-002, blaIMP), 64 mg/L; in series [2] (PA-007, blaNDM) it was 16 mg/L; in series [2] (PA-008, blaNDM), 16 mg/L; in series [2] (PA-011, blaNDM), 16 mg/L; in series [2] (PA-012, blaNDM) it was 16 mg/L. Also, the “MIC of ATM, alone or in combination” value in series [2] (PA-016, blaIMP) stood at 64 mg/L; in series [2] (PA-017, blaNDM) it was 16 mg/L; in [2] (PA-019, blaNDM), 16 mg/L; in [2] (PA-020, blaNDM) it was 16 mg/L; in series [2] (PA-023, blaNDM), 16 mg/L; in [2] (PA-025, blaNDM) it was 16 mg/L. In addition, the “MIC of ATM, alone or in combination” value in [2] (PA-027, blaIMP) is 32 mg/L; in [2] (PA-028, blaNDM), 8 mg/L; in series [2] (PA-029, blaIMP) it was 64 mg/L; in series [2] (PA-030, blaIMP), 64 mg/L; in series [2] (PA-034, blaNDM), 16 mg/L; in [2] (PA-036, blaNDM), 16 mg/L. In addition, the “MIC of ATM, alone or in combination” value in series [2] (PA-038, blaNDM) stood at 16 mg/L; in series [2] (PA-039, blaNDM) it was 16 mg/L; in [2] (PA-044, blaNDM), 16 mg/L. The “MIC Value of ATM, alone or in combination with ARMA” value came to 64 mg/L in [2] (PA-002, blaIMP); 32 mg/L in [2] (PA-003, blaVIM); 16 mg/L in series [2] (PA-025, blaNDM); 16 mg/L in series [2] (PA-038, blaNDM). Moreover, the “inhibition of biofilm formation” value in series [3] (1/2 × MIC ATM alone) is “no significant inhibition of biofilm formation”. Besides, the “Biofilm biomass (OD600)” value in [3] (PA-007, blaNDM, ATM 1/2 MIC (8 mg/L)) was determined as 1.03; in series [3] (PA-011, blaNDM, ATM 1/2 MIC (8 mg/L)), 0.51; in series [3] (PA-012, blaNDM, ATM 1/2 MIC (8 mg/L)), 0.23; in series [3] (PA-030, blaIMP, ATM 1/2 MIC (32 mg/L)) it was 1.84.

For the compound `N#CC(C#N)=NNc1cccc(Cl)c1` [CCCP, carbonyl cyanide 3-chlorophenylhydrazone], in series [4], the “EtBr fluorescence (accumulation)” value was “became stronger”.

On to `O=c1c(O)c(-c2ccc(F)c(F)c2)oc2cc(O)cc(O)c12` [Compound 1, 3′,4′-difluoroquercetin], for which, in series [2] (four representative MBL-producing P. aeruginosa strains (Table 2)), the “concentration at which ATM-potentiating activity was observed” value fell in the range of 8 to 16 mg/L. The IC50 in series [5] is > 50 µM; in series [6], > 50 µM; in series [7] it was > 100 µM; in [8], > 100 µM; in series [9] it was > 50 µM. Moreover, the “EtBr fluorescence (accumulation)” value in series [4] was “as potent as CCCP”. In [10], the “inhibition of ESBLs” value is “not to inhibit ESBLs”.

For the compound `CC(C)(C)CCOc1c(-c2ccc(F)c(F)c2)oc2cc(O)cc(O)c2c1=O` [Compound 23], the IC50 is 18.9 µM in [5]; 17.3 µM in series [6]; 14.8 µM in [7]; 11.9 µM in [8]; 11.4 µM in [9]. The “EtBr fluorescence (accumulation)” value in series [4] is “significant increase in EtBr accumulation”.

Regarding `O=c1c(OCCC2CCCC2)c(-c2ccc(F)c(F)c2)oc2cc(O)cc(O)c12` [Compound 26], the IC50 in series [5] came out at 21 µM; in series [6], 11.5 µM; in [7] it was 8 µM; in [8] it was 9 µM; in [9], 15.9 µM. Also, the “EtBr fluorescence (accumulation)” value in series [4] is “significant increase in EtBr accumulation”.

In the case of `O=c1c(OCCC2CCCCC2)c(-c2ccc(F)c(F)c2)oc2cc(O)cc(O)c12` [Compound 27], the “strains with more than a four-fold MIC reduction (synergistic effect) of ATM” value in series [2] (21 MBL-producing P. aeruginosa clinical strains, combination with ATM) was 19 out of 21. Further, the MIC in series [2] (Pseudomonas aeruginosa, MBL-producing P. aeruginosa clinical isolates, no activity up to this concentration, read-out: antimicrobial activity (MIC) of the compound alone) is > 512 µg/mL. For the same compound, the IC50 in series [5] amounted to 15.3 µM; in series [6], 11.3 µM; in series [7] it was 6.3 µM; in [8] it was 4.4 µM; in [9], 10.1 µM. For the same compound, the “EtBr fluorescence (accumulation)” value in [4] is on record as “significant increase in EtBr accumulation”. For the same compound, in series [11], the cytotoxic effects entry is on record as “no cytotoxic effects”.
